Measurements taken from publication PMC4467398, “Preclinical antitumor activity of ST7612AA1: a new oral thiol-based histone deacetylase (HDAC) inhibitor” (Oncotarget, 2014).

Test system: DOHH2 and TMD8 DLBCL cells
Assay: Gene expression profiling (HumanHT-12 v4 BeadChip, limma), ST7612AA1 300 nM 8 hrs vs DMSO
Assay type: cell-based, human
Conditions: 300 nM 8 hrs

## CC(=O)SCCCCC[C@H](NC(=O)[C@H]1CCC(=O)N1)C(=O)Nc1ccccc1 [ST7612AA1]
  AveExpr.ST7612 NOSIP (probe ILMN_1759436): 7.06E-01
  AveExpr.ST7612 NPC2 (probe ILMN_1716678): 8.44E-01
  AveExpr.ST7612 NPL (probe ILMN_1782070): 7.76E-01
  AveExpr.ST7612 NPL (probe ILMN_2149494): 8.88E-01
  AveExpr.ST7612 NQO2 (probe ILMN_1712918): 8.69E-01
  AveExpr.ST7612 NUB1 (probe ILMN_1665291): 7.20E-01
  AveExpr.ST7612 NUMB (probe ILMN_2331266): 7.27E-01
  AveExpr.ST7612 NXF1 (probe ILMN_1705783): 8.80E-01
  AveExpr.ST7612 NXF1 (probe ILMN_2358652): 7.18E-01
  AveExpr.ST7612 P704P (probe ILMN_1793950): 6.85E-01
  AveExpr.ST7612 PAQR8 (probe ILMN_1694589): 7.20E-01
  AveExpr.ST7612 PCYOX1 (probe ILMN_1679725): 7.89E-01
  AveExpr.ST7612 PDXK (probe ILMN_1672504): 8.94E-01
  AveExpr.ST7612 PECI (probe ILMN_2384536): 8.25E-01
  AveExpr.ST7612 PEX16 (probe ILMN_1745655): 7.84E-01
  AveExpr.ST7612 PIM2 (probe ILMN_1748283): 7.43E-01
  AveExpr.ST7612 PKIA (probe ILMN_2337974): 7.37E-01
  AveExpr.ST7612 PLD3 (probe ILMN_1666976): 8.81E-01
  AveExpr.ST7612 PMAIP1 (probe ILMN_2098446): 8.50E-01
  AveExpr.ST7612 PNKD (probe ILMN_1774604): 7.25E-01
  AveExpr.ST7612 PRDX2 (probe ILMN_1767766): 8.35E-01
  AveExpr.ST7612 PRDX2 (probe ILMN_2382829): 7.41E-01
  AveExpr.ST7612 PTGER4 (probe ILMN_1795930): 9.03E-01
  AveExpr.ST7612 PTTG1 (probe ILMN_1753196): 6.92E-01
  AveExpr.ST7612 RAB8B (probe ILMN_2173004): 8.71E-01
  AveExpr.ST7612 RAB24 (probe ILMN_2379718): 7.77E-01
  AveExpr.ST7612 RABGAP1 (probe ILMN_2061950): 6.86E-01
  AveExpr.ST7612 RAPGEF2 (probe ILMN_3247261): 8.54E-01
  AveExpr.ST7612 RASAL1 (probe ILMN_1793517): 7.10E-01
  AveExpr.ST7612 RASD2 (probe ILMN_2170209): 7.75E-01
  AveExpr.ST7612 REEP2 (probe ILMN_1666057): 6.85E-01
  AveExpr.ST7612 RFC1 (probe ILMN_2217935): 7.23E-01
  AveExpr.ST7612 RHBDD2 (probe ILMN_1809437): 7.80E-01
  AveExpr.ST7612 RHBDD2 (probe ILMN_2406410): 8.04E-01
  AveExpr.ST7612 RHOBTB3 (probe ILMN_1744949): 8.25E-01
  AveExpr.ST7612 RHOC (probe ILMN_1673305): 9.02E-01
  AveExpr.ST7612 RNASE4 (probe ILMN_1776602): 7.33E-01
  AveExpr.ST7612 RND2 (probe ILMN_1736533): 7.06E-01
  AveExpr.ST7612 RNF24 (probe ILMN_1717809): 7.24E-01
  AveExpr.ST7612 RTN2 (probe ILMN_1749115): 8.60E-01
  AveExpr.ST7612 RTN3 (probe ILMN_2363065): 7.08E-01
  AveExpr.ST7612 SBK1 (probe ILMN_1728298): 8.80E-01
  AveExpr.ST7612 SCARNA11 (probe ILMN_3236010): 6.95E-01
  AveExpr.ST7612 SCARNA13 (probe ILMN_3235325): 7.18E-01
  AveExpr.ST7612 SCARNA14 (probe ILMN_3247636): 7.31E-01
  AveExpr.ST7612 SDCBP (probe ILMN_2363586): 8.86E-01
  AveExpr.ST7612 SDCBP (probe ILMN_2363591): 8.22E-01
  AveExpr.ST7612 SDHAP2 (probe ILMN_3248781): 7.07E-01
  AveExpr.ST7612 SEMA4D (probe ILMN_1687533): 7.86E-01
  AveExpr.ST7612 SEMA4F (probe ILMN_1805007): 7.51E-01
  AveExpr.ST7612 SERPINB9 (probe ILMN_1742052): 7.55E-01
  AveExpr.ST7612 SERPINI1 (probe ILMN_1814333): 7.79E-01
  AveExpr.ST7612 SGK (probe ILMN_1702487): 8.82E-01
  AveExpr.ST7612 SH3GLB2 (probe ILMN_2158336): 6.85E-01
  AveExpr.ST7612 SLC23A2 (probe ILMN_1746578): 7.82E-01
  AveExpr.ST7612 SLC25A4 (probe ILMN_1681670): 8.53E-01
  AveExpr.ST7612 SLC25A4 (probe ILMN_2211780): 7.98E-01
  AveExpr.ST7612 SLC25A23 (probe ILMN_1679949): 7.04E-01
  AveExpr.ST7612 SLC44A2 (probe ILMN_1771987): 7.92E-01
  AveExpr.ST7612 SLC45A3 (probe ILMN_1726114): 7.11E-01
  AveExpr.ST7612 SLFN11 (probe ILMN_1752520): 7.62E-01
  AveExpr.ST7612 SNAP23 (probe ILMN_1687519): 8.74E-01
  AveExpr.ST7612 SNORD31 (probe ILMN_2072391): 7.85E-01
  AveExpr.ST7612 SORT1 (probe ILMN_1707077): 8.42E-01
  AveExpr.ST7612 SPAG9 (probe ILMN_2263718): 7.33E-01
  AveExpr.ST7612 SPINT2 (probe ILMN_1800739): 8.11E-01
  AveExpr.ST7612 SREBF1 (probe ILMN_1663035): 7.22E-01
  AveExpr.ST7612 SRGN (probe ILMN_1760347): 7.62E-01
  AveExpr.ST7612 SRGN (probe ILMN_2169152): 7.60E-01
  AveExpr.ST7612 STARD10 (probe ILMN_1717052): 8.01E-01
  AveExpr.ST7612 STK17B (probe ILMN_1798543): 7.91E-01
  AveExpr.ST7612 STMN3 (probe ILMN_3244117): 9.01E-01
  AveExpr.ST7612 STX3 (probe ILMN_1659544): 8.71E-01
  AveExpr.ST7612 SUSD3 (probe ILMN_1785570): 8.58E-01
  AveExpr.ST7612 TACC1 (probe ILMN_1770084): 7.64E-01
